Here are results for 11 molecules from ChEMBL document CHEMBL1201862, “PubChem BioAssay data set” (2004).

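Step 1: Grow cells in 96-well plates. Step 2: Expose to compound for 48 hours at 5 concentrations. Step 3: Interpolate endpoints linearly; if unreached, use highest concentration. GI50: concentration for 50% inhibition of growth.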 Activity calls are given as the source filed them. No stated cut-off is given here; in the data, active = GI50 up to about 1.1 µM and inactive = higher. Where only a bound is given, the exact number is not on record here.

Some test systems named below: T47D; NCI-H460; BT-549; NCI-H226; MDA-MB-231; MDA-MB-435; UACC-257; HOP-62; K562; SK-MEL-28; Malme-3M; IGROV-1; COLO 205; LOX IMVI; A549; HCT-15; SF-268; M14; ACHN; UO-31.
Common to all, as to assay: growth of human tumour cells (NCI), 48 h

Regarding `O=C(O)C1CCCCN1C(=O)Cc1c[nH]c2ccccc12` (stereo not drawn), the GI50 is > 100 µM (inactive) with T47D; > 100 µM (inactive) in the test on NCI-H460; > 100 µM (inactive) with BT-549; > 100 µM (inactive) with NCI-H226; 29 µM (inactive) in the test with MDA-MB-231; > 100 µM (inactive) in the test with MDA-MB-435. Moreover, the GI50 in the test with UACC-257, in the test on HOP-62, in the test with K562, in the test on SK-MEL-28, with Malme-3M and in the test on IGROV-1 was > 100 µM (inactive) throughout. Further, the GI50 with COLO 205 was > 100 µM (inactive); in the test on LOX IMVI, > 100 µM (inactive); in the test on A549, > 100 µM (inactive); with HCT-15, > 100 µM; in the test with SF-268 it was > 100 µM (inactive); in the test with M14, > 100 µM (inactive). In addition, in the test with ACHN, the GI50 was > 100 µM (inactive).

Regarding `COC(=O)c1scc(N)c1-n1ccc(=O)[nH]c1=O`, the GI50 in the test on T47D, with NCI-H460, in the test on BT-549, in the test on NCI-H226, in the test on UO-31 and in the test on MDA-MB-231 was > 100 µM (inactive) in each case. The GI50 with MDA-MB-435, in the test with UACC-257, with K562, in the test with SK-MEL-28, in the test on Malme-3M and with IGROV-1 was > 100 µM (inactive) in each case. The GI50 was > 100 µM (inactive) in the test with COLO 205; > 100 µM (inactive) in the test with LOX IMVI; > 100 µM (inactive) in the test on A549; > 100 µM with HCT-15; > 100 µM (inactive) with SF-268; > 100 µM (inactive) with M14. Further, the GI50 with ACHN was > 100 µM (inactive).

Turning to `O=c1[nH]c(=O)c2c([nH]1)[nH]c1ccccc12`, the GI50 in the test on T47D, in the test on BT-549, in the test on NCI-H226, in the test with UO-31, in the test with MDA-MB-231 and in the test with MDA-MB-435 was > 100 µM (inactive) each time. For the same molecule, the GI50 with UACC-257, in the test with HOP-62, in the test on K562, in the test on Malme-3M, with IGROV-1 and in the test with COLO 205 was > 100 µM (inactive) throughout. Moreover, the GI50 in the test with LOX IMVI was > 100 µM (inactive); in the test on A549 it was > 100 µM (inactive); with HCT-15 it was > 100 µM; in the test on SF-268, > 100 µM (inactive); with M14 it was > 100 µM (inactive); in the test with ACHN, > 100 µM (inactive).

With `CC1=C2C3=C(C)C(=O)C(C)(C)CC[C@@]3(C)[C@]2(C)CCC(C)(C)C1=O`, the GI50 in the test with T47D, in the test with BT-549, in the test on NCI-H226, in the test with UO-31, in the test with MDA-MB-231 and in the test with MDA-MB-435 was > 100 µM (inactive) throughout. The GI50 in the test on UACC-257, in the test with HOP-62, in the test with K562, in the test on Malme-3M, in the test on IGROV-1 and with COLO 205 was > 100 µM (inactive) in each case. The GI50 in the test with LOX IMVI was > 100 µM (inactive); in the test on A549 it was > 100 µM (inactive); in the test on HCT-15 it was > 100 µM; in the test on SF-268, > 100 µM (inactive); in the test with M14, > 100 µM (inactive); in the test with ACHN, > 100 µM (inactive).

On to `O=c1[nH]c(=O)n(C2OC(CO)C(O)C(F)C2O)cc1F` (stereo not drawn), for which the GI50 in the test with T47D, in the test with NCI-H460, in the test with BT-549, in the test on NCI-H226, in the test on UO-31 and in the test on MDA-MB-231 was > 100 µM (inactive) throughout. Moreover, the GI50 in the test on MDA-MB-435, with UACC-257, in the test with K562, with SK-MEL-28, with Malme-3M and in the test on COLO 205 was > 100 µM (inactive) each time. Also, the GI50 in the test with LOX IMVI is > 100 µM (inactive); in the test on A549, > 100 µM (inactive); in the test on HCT-15 it was > 100 µM; with SF-268 it was > 100 µM (inactive); in the test on M14, > 100 µM (inactive); in the test on ACHN, > 100 µM (inactive).

For the molecule `Cc1ccc2[nH]c3c(c(=O)n(C)c(=O)n3C)c2c1`, the GI50 with T47D, in the test with BT-549, with NCI-H226, with UO-31, in the test on MDA-MB-231 and in the test with MDA-MB-435 was > 100 µM (inactive) in each case. The GI50 in the test on UACC-257, in the test on HOP-62, in the test on K562, in the test on Malme-3M, in the test on IGROV-1 and in the test with COLO 205 was > 100 µM (inactive) in each case. Besides, the GI50 in the test on LOX IMVI is > 100 µM (inactive); with A549, > 100 µM (inactive); with HCT-15, > 100 µM; in the test with SF-268 it was > 100 µM (inactive); with M14, > 100 µM (inactive); with ACHN, > 100 µM (inactive).

In the case of `COc1cccc(-n2c(N)c(-c3nc4cc(C(F)(F)F)ccc4s3)c3ccc([N+](=O)[O-])cc3c2=O)c1`, the GI50 with T47D, with NCI-H460, with BT-549, with NCI-H226, with UO-31 and with MDA-MB-231 was > 100 µM (inactive) in each case. Besides, the GI50 in the test on MDA-MB-435, in the test with UACC-257, in the test on HOP-62, in the test with K562, in the test with SK-MEL-28 and in the test on Malme-3M was > 100 µM (inactive) in each case. Moreover, the GI50 in the test with COLO 205 was > 100 µM (inactive); in the test on A549 it was > 100 µM (inactive); with HCT-15 it was > 100 µM; with SF-268 it was > 100 µM (inactive); in the test with M14, > 100 µM (inactive); in the test with ACHN, > 100 µM (inactive).

Consider `CC(=O)OCCn1c(Cc2ccc(C)cc2)nn(C(C)=O)c1=O`, for which the GI50 with T47D, with NCI-H460, in the test with BT-549, in the test with NCI-H226, in the test on UO-31 and with MDA-MB-231 was > 100 µM (inactive) in each case. For the same molecule, the GI50 in the test with MDA-MB-435, in the test on UACC-257, in the test with K562, in the test with SK-MEL-28, with Malme-3M and in the test on IGROV-1 was > 100 µM (inactive) each time. Also, the GI50 was > 100 µM (inactive) with COLO 205; > 100 µM (inactive) in the test on LOX IMVI; > 100 µM (inactive) in the test on A549; > 100 µM in the test with HCT-15; > 100 µM (inactive) in the test on SF-268; > 100 µM (inactive) with M14. Also, in the test with ACHN, the GI50 was > 100 µM (inactive).

Take `COc1ccc(Cc2nc3cc(C(F)(F)F)ccc3n2C[C@@H]2CCCN3CCCCC23)cc1` (stereo partly drawn): the GI50 was 6.04 µM (inactive) in the test with T47D; 13.6 µM (inactive) in the test on NCI-H460; 13.8 µM (inactive) in the test with BT-549; 18.1 µM (inactive) in the test with NCI-H226; 11 µM (inactive) in the test with MDA-MB-231; 12.2 µM (inactive) with MDA-MB-435. For the same molecule, the GI50 was 2.46 µM (inactive) in the test on UACC-257; 8.73 µM (inactive) with HOP-62; 13.7 µM (inactive) in the test on K562; 13 µM (inactive) in the test on SK-MEL-28; 3.18 µM (inactive) in the test on Malme-3M; 5.42 µM (inactive) in the test on IGROV-1. The GI50 in the test with COLO 205 is 5.36 µM (inactive); with LOX IMVI, 10.5 µM (inactive); in the test on A549 it was 9.02 µM (inactive); in the test with HCT-15 it was 14.2 µM; with M14, 2.72 µM (inactive); with ACHN, 6.75 µM (inactive).

On to `C[C@@H](c1ccccc1)N1CN(C(=O)OCc2ccccc2)C(C)(C)CC1=O`, for which the GI50 in the test with T47D was 50.6 µM (inactive); with NCI-H460, > 100 µM (inactive); in the test on BT-549, > 100 µM (inactive); in the test with NCI-H226, > 100 µM (inactive); with MDA-MB-231, > 100 µM (inactive); in the test on MDA-MB-435, > 100 µM (inactive). Further, the GI50 was 78.2 µM (inactive) in the test on UACC-257; > 100 µM (inactive) in the test with HOP-62; > 100 µM (inactive) in the test with K562; 56.9 µM (inactive) in the test on SK-MEL-28; > 100 µM (inactive) with Malme-3M; > 100 µM (inactive) with IGROV-1. Further, the GI50 was > 100 µM (inactive) with COLO 205; > 100 µM (inactive) in the test on LOX IMVI; > 100 µM (inactive) in the test on A549; > 100 µM with HCT-15; > 100 µM (inactive) in the test on SF-268; > 100 µM (inactive) with M14. Further, in the test on ACHN, the GI50 is > 100 µM (inactive).

On to `CCCCCC/C=C\CCCCCCCCCc1cccc(OC)c1O`, for which the GI50 with T47D, in the test on BT-549, in the test on NCI-H226, with UO-31, in the test on MDA-MB-231 and in the test on MDA-MB-435 was > 100 µM (inactive) throughout. For the same molecule, the GI50 with UACC-257, with HOP-62, in the test on K562, with SK-MEL-28, in the test on Malme-3M and in the test with IGROV-1 was > 100 µM (inactive) each time. The GI50 in the test on COLO 205 was > 100 µM (inactive); with LOX IMVI it was > 100 µM (inactive); in the test on A549 it was > 100 µM (inactive); with HCT-15 it was > 100 µM; with SF-268, > 100 µM (inactive); in the test with M14, > 100 µM (inactive). In the test on ACHN, the GI50 is > 100 µM (inactive).
